Melting point, mortality and pest or weed control data for 22 compounds are collected here from patent publication US20160214974A1 (SYNGENTA PARTICIPATIONS AG, priority 2013, published 2016).

Read-outs that look alike come from different tables or passages of the source.

In data set [1] the test system is Myzus persicae (Green Peach Aphid). Nature of the data set: Activity against Myzus persicae, sunflower leaf discs sprayed (Example B1). The format is in vivo. The settings on record: foliar, 144 h, read-out: control of Myzus persicae (mortality). How it is done:
(§1) Activity Against Myzus persicae (Green Peach Aphid)
Sunflower leaf discs were placed on agar in a 24-well microtiter plate and sprayed with the test solutions at an application rate of 200 ppm. After drying, the leaf discs were infested with an aphid population of mixed ages. After an incubation period of 6 days, samples were checked for mortality.

The subject of data set [2] is Bemisia tabaci (Cotton White Fly). Description: Activity against Bemisia tabaci, cotton leaf discs sprayed (Example B3). The data set is classed as in vivo. As to conditions: foliar, 144 h, read-out: control of Bemisia tabaci (mortality). On the procedure: Activity Against Bemisia tabaci (Cotton White Fly)
Cotton leaf discs were placed on agar in a 24-well microtiter plate and sprayed with test solutions at an application rate of 200 ppm. After drying, the leaf discs were infested with 12 to 18 adults. After an incubation period of 6 days after infestation, samples were checked for mortality.

The test system of data set [3] is Q-biotype strain of Bemisia tabaci (Neonicotinoid resistant). Description: Control of neonicotinoid and pyrethroid resistant tobacco whitefly (Example B4 b). As to conditions: 72 h, read-out: control of the Q-biotype (Neonicotinoid resistant) strain of Bemisia tabaci. The format is in vivo.
For data set [4], the system named is Myzus persicae (Green Peach Aphid). Nature of the data set: Activity against Myzus persicae, pea seedlings with roots in test solution (Example B2). The format is in vivo. The settings on record: 144 h, read-out: control of Myzus persicae (mortality).
Excerpt: as §1
Pea seedlings, infested with an aphid population of mixed ages, were placed with the roots directly in the test solutions at an application rate of 24 ppm. 6 days after introduction, samples were checked for mortality.

[5] abbreviates: sunflower leaf discs sprayed at 200 ppm, mixed age aphids, 6 days.
[6] abbreviates: cotton leaf discs sprayed at 200 ppm, adults, 6 days.

As a reminder, the melting point is the temperature of the solid-liquid transition. Regarding `CC(C)(C)OC(=O)N1[C@@H]2CC[C@H]1C[C@](C(N)=S)(c1cncc(Br)c1)C2`, the melting point was 228 to 230 °C.
Usually mortality stands for the percentage killed. Regarding `NC(=S)[C@@]1(c2cncc(Cl)c2)C[C@H]2C=C[C@@H](C1)N2CC(F)F` [E.001, (1R,5S)-3-(5-chloro-3-pyridyl)-8-(2,2-difluoroethyl)-8-azabicyclo[3.2.1]oct-6-ene-3-carbothioamide], the mortality at 200 ppm in data set [1] and in data set [2] was not below 80% throughout. For the same compound, the pest or weed control at 200 ppm in data set [3] (200 ppm) was not below 80%. For the same compound, the mortality at 24 ppm in data set [4] was not below 80%.
Take `NC(=S)[C@@]1(c2cncc(Cl)c2)C[C@H]2CC[C@@H](C1)N2CC(F)(F)F` [E.002, (1S,5R)-3-(5-chloro-3-pyridyl)-8-(2,2,2-trifluoroethyl)-8-azabicyclo[3.2.1]octane-3-carbothioamide]: the mortality at 200 ppm in data set [1] and in data set [2] was not below 80% each time. Further, in data set [3], the pest or weed control at 200 ppm was not below 80%.
With `C=C(Cl)CN1[C@@H]2CC[C@H]1C[C@](C(N)=S)(c1cncc(Br)c1)C2` [E.006, (1S,5R)-3-(5-bromo-3-pyridyl)-8-(2-chloroallyl)-8-azabicyclo[3.2.1]octane-3-carbothioamide], the mortality at 200 ppm in data set [1] and in data set [2] was not below 80% throughout. Besides, the pest or weed control at 200 ppm in data set [3] was not below 80%. Also, the mortality at 24 ppm in data set [4] is not below 80%.
With `NC(=S)[C@@]1(c2cncc(Br)c2)C[C@H]2CC[C@@H](C1)N2CC(F)(F)F` [E.007, (1S,5R)-3-(5-bromo-3-pyridyl)-8-(2,2,2-trifluoroethyl)-8-azabicyclo[3.2.1]octane-3-carbothioamide], the mortality at 200 ppm in data set [1] and in data set [2] was not below 80% in each case.
As for `NC(=S)[C@@]1(c2cncc(Br)c2)C[C@H]2C=C[C@@H](C1)N2CCCC(F)(F)F` [E.008, (1R,5S)-3-(5-bromo-3-pyridyl)-8-(4,4,4-trifluorobutyl)-8-azabicyclo[3.2.1]oct-6-ene-3-carbothioamide], the mortality at 200 ppm in data set [1] and in data set [2] was not below 80% throughout. Moreover, the pest or weed control at 200 ppm in data set [3] (200 ppm) was not below 80%. Also, the mortality at 24 ppm in data set [4] was not below 80%.
In the case of `N#Cc1cncc([C@]2(C(N)=S)C[C@H]3CC[C@@H](C2)N3CC(F)(F)F)c1` [E.009, (1S,5R)-3-(5-cyano-3-pyridyl)-8-(2,2,2-trifluoroethyl)-8-azabicyclo[3.2.1]octane-3-carbothioamide], the mortality at 200 ppm in data set [1] and in data set [2] was not below 80% each time. Moreover, the pest or weed control at 200 ppm in data set [3] is not below 80%.
On to `NC(=S)[C@@]1(c2cncc(Br)c2)C[C@H]2CC[C@@H](C1)N2` [E.010, (1R,5S)-3-(5-bromo-3-pyridyl)-8-azabicyclo[3.2.1]octane-3-carbothioamide], for which the mortality at 200 ppm in data set [1] (setting [5]) and in data set [2] (setting [6]) was not below 80% in each case. Further, in data set [4] (pea seedlings, roots in test solution at 24 ppm, 6 days), the mortality at 24 ppm is not below 80%.
Turning to `C=C(Cl)CN1[C@@H]2C=C[C@H]1C[C@](C(N)=S)(c1cncc(C#N)c1)C2` [E.012, (1 S,5R)-8-(2-chloroallyl)-3-(5-cyano-3-pyridyl)-8-azabicyclo[3.2.1]oct-6-ene-3-carbothioamide], the pest or weed control at 200 ppm in data set [3] (200 ppm) is not below 80%. Also, in data set [4], the mortality at 24 ppm is not below 80%.
On to `C=C(Cl)CN1[C@@H]2C=C[C@H]1C[C@](C(N)=S)(c1cncc(Br)c1)C2` [E.013, (1R,5S)-3-(5-bromo-3-pyridyl)-8-(2-chloroallyl)-8-azabicyclo[3.2.1]oct-6-ene-3-carbothioamide], for which the mortality at 200 ppm in data set [1] and in data set [2] was not below 80% throughout. Also, the pest or weed control at 200 ppm in data set [3] (200 ppm) was not below 80%.
As for `NC(=S)[C@@]1(c2cncc(Br)c2)C[C@H]2C=C[C@@H](C1)N2` [E.015, (1S,5R)-3-(5-bromo-3-pyridyl)-8-azabicyclo[3.2.1]oct-6-ene-3-carbothioamide], the mortality at 200 ppm in data set [1] (setting [5]) and in data set [2] (setting [6]) was not below 80% in each case.
In the case of `NC(=S)[C@@]1(c2cncc(C3CC3)c2)C[C@H]2CC[C@@H](C1)N2CC(F)(F)F` [E.023], the mortality at 200 ppm in data set [1] (setting [5]) was not below 80%.
For the compound `NC(=S)[C@@]1(c2cncc(I)c2)C[C@H]2C=C[C@@H](C1)N2` [E.034, (1S,5R)-3-(5-iodo-3-pyridyl)-8-azabicyclo[3.2.1]oct-6-ene-3-carbothioamide], the mortality at 200 ppm in data set [1] (setting [5]) and in data set [2] (setting [6]) was not below 80% throughout.
For `NC(=S)[C@@]1(c2cncc(I)c2)C[C@H]2C=C[C@@H](C1)N2CC(F)F` [E.039, (1 S,5R)-8-(2,2-difluoroethyl)-3-(5-iodo-3-pyridyl)-8-azabicyclo[3.2.1]oct-6-ene-3-carbothioamide], the mortality at 200 ppm in data set [1] and in data set [2] was not below 80% each time. Besides, in data set [3] (200 ppm), the pest or weed control at 200 ppm was not below 80%. For the same compound, the mortality at 24 ppm in data set [4] is not below 80%.
On to `NC(=S)[C@@]1(c2cncc(I)c2)C[C@H]2C=C[C@@H](C1)N2CC(F)(F)F` [E.060, (1R,5S)-3-(5-iodo-3-pyridyl)-8-(2,2,2-trifluoroethyl)-8-azabicyclo[3.2.1]oct-6-ene-3-carbothioamide], for which the mortality at 200 ppm in data set [1] (setting [5]) and in data set [2] (setting [6]) was not below 80% in each case.
Consider `C=CCN1[C@@H]2C=C[C@H]1C[C@](C(N)=S)(c1cncc(I)c1)C2` [E.063, (1R,5S)-8-allyl-3-(5-iodo-3-pyridyl)-8-azabicyclo[3.2.1]oct-6-ene-3-carbothioamide], for which the mortality at 200 ppm in data set [1] and in data set [2] was not below 80% throughout. The pest or weed control at 200 ppm in data set [3] (200 ppm) was not below 80%. The mortality at 24 ppm in data set [4] is not below 80%.
Regarding `C[Si](C)(C)C#Cc1cncc([C@]2(C(N)=S)C[C@H]3C=C[C@@H](C2)N3CC(F)(F)F)c1` [E.068, (1R,5S)-8-(2,2,2-trifluoroethyl)-3-[5-(2-trimethylsilylethynyl)-3-pyridyl]-8-azabicyclo[3.2.1]oct-6-ene-3-carbothioamide], the mortality at 200 ppm in data set [1] (setting [5]) is not below 80%.
For the compound `C#Cc1cncc([C@]2(C(N)=S)C[C@H]3C=C[C@@H](C2)N3CC(F)(F)F)c1` [E.070, (1R,5S)-3-(5-ethynyl-3-pyridyl)-8-(2,2,2-trifluoroethyl)-8-azabicyclo[3.2.1]oct-6-ene-3-carbothioamide], in data set [1] (setting [5]), the mortality at 200 ppm was not below 80%.
In the case of `NC(=S)[C@@]1(c2cncc(F)c2)C[C@H]2C=C[C@@H](C1)N2CC(F)F` [E.071, (1R,5S)-8-(2,2-difluoroethyl)-3-(5-fluoro-3-pyridyl)-8-azabicyclo[3.2.1]oct-6-ene-3-carbothioamide], the mortality at 200 ppm in data set [1] and in data set [2] was not below 80% throughout. Besides, the pest or weed control at 200 ppm in data set [3] (200 ppm) is not below 80%. In data set [4], the mortality at 24 ppm was not below 80%.
For the compound `NC(=S)[C@@]1(c2cncc(I)c2)C[C@H]2CC[C@@H](C1)N2CC(F)F` [E.072, (1 S,5R)-8-(2,2-difluoroethyl)-3-(5-iodo-3-pyridyl)-8-azabicyclo[3.2.1]octane-3-carbothioamide], the mortality at 200 ppm in data set [1] and in data set [2] was not below 80% each time. In addition, the pest or weed control at 200 ppm in data set [3] is not below 80%. In addition, the mortality at 24 ppm in data set [4] is not below 80%.
For `O=[N+]([O-])NC1=NCCN1Cc1ccc(Cl)nc1` [Imidacloprid, reference compound], in data set [3], the pest or weed control at 200 ppm is less than 80%.
The same measure, in the same setting: the result for `N#C/N=C1\SCCN1Cc1ccc(Cl)nc1` [Thiacloprid, reference compound] reads less than 80%.
